From ChEMBL document CHEMBL1145541 (J Med Chem, 2008)
pIC50, pKi: −log10 of the molar value.

Assays:
[1] = biological target: T1, Type-1 angiotensin II receptor A (Rattus norvegicus, UniProt P25095); assay: Displacement of [125I]Sar1,Ile8-Ang2 from AT1 receptor in Wistar rat hepatic membrane; format: cell membranes, Liver
T1 sequence (P25095 whole entry): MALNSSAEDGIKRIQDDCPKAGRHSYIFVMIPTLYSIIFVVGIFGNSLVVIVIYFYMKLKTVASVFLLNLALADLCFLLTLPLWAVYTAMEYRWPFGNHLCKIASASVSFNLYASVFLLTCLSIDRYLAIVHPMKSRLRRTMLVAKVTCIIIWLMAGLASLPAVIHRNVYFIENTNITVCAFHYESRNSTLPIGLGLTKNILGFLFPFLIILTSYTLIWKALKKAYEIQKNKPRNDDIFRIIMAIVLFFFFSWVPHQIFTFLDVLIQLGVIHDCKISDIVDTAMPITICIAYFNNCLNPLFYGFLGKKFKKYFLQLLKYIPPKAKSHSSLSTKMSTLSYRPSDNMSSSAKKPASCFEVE

in vitro = conditions: human, Caco-2
Description: Permeability from apical to basolateral side of human Caco-2 cell membrane

[2] = biological target: T2, Type-1 angiotensin II receptor (Oryctolagus cuniculus, UniProt P34976); assay: Antagonist activity at AT1 receptor in Ang II-contracted rabbit aortic strips after 60 mins; conditions: read-out: pA2 (converted)
T2 sequence (P34976 whole entry): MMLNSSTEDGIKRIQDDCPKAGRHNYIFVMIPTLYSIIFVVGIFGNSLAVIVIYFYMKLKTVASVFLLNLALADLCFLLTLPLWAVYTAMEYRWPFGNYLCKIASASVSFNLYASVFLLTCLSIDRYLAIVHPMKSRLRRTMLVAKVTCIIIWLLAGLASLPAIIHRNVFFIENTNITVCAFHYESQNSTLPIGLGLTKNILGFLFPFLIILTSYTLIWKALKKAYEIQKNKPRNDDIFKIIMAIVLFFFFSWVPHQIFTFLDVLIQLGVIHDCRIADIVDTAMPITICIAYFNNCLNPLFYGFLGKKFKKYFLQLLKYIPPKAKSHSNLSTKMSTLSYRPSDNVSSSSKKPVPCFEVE

[3] = AUC in Sprague-Dawley rat at 5 mg/kg, iv; format: ADME, organism-based; design: dose 5 mg/kg, route intravenous; conditions: plasma
[4] = AUC in Sprague-Dawley rat at 15 mg/kg, po; format: ADME, organism-based; design: dose 15 mg/kg, route oral; conditions: plasma
[5] = Half life in Sprague-Dawley rat at 5 mg/kg, iv; format: ADME, organism-based; design: dose 5 mg/kg, route intravenous; conditions: in vivo
[6] = Half life in Sprague-Dawley rat at 15 mg/kg, po; format: ADME, organism-based; design: dose 15 mg/kg, route oral; conditions: in vivo
[7] = Cmax in Sprague-Dawley rat at 5 mg/kg, iv; format: ADME, organism-based; design: dose 5 mg/kg, route intravenous; conditions: in vivo
[8] = Cmax in Sprague-Dawley rat at 15 mg/kg, po; format: ADME, organism-based; design: dose 15 mg/kg, route oral; conditions: in vivo
[9] = Tmax in Sprague-Dawley rat at 15 mg/kg, po; format: ADME, organism-based; design: dose 15 mg/kg, route oral; conditions: in vivo
[10] = Oral bioavailability in Sprague-Dawley rat at 15 mg/kg; format: ADME, organism-based; conditions: in vivo

With `CCc1nc2c(C)cc(C)nc2n1Cc1ccc(-c2c(-c3nnn[nH]3)cnc3ccccc23)cc1` as the compound, how does the pIC50 [1] read?
Its pIC50 is 8.16.

With `CCn1c(=O)c2ccc(C)nc2n1Cc1ccc(-c2ccccc2-c2nnn[nH]2)cc1` as the compound, how does the pIC50 [1] read?
Its pIC50 is 5.73.

With `CCCCn1c(=O)c2ccc(OC)nc2n1Cc1ccc(-c2ccccc2-c2nnn[nH]2)cc1` as the compound, how does the pIC50 [1] read?
Its pIC50 is 6.59.

With `CCCCn1c(=O)c2ccc(Cl)nc2n1Cc1ccc(-c2ccccc2-c2nnn[nH]2)cc1` as the compound, how does the pIC50 [1] read?
The pIC50 was 6.77.

With `CCCCn1c2nc(C)ccc2c(=O)n1Cc1ccc(-c2ccccc2-c2nn[nH]n2)cc1` as the compound, how does the pIC50 [1] read?
The pIC50 was 7.05.

What about the Papp A→B (in vitro) of the same compound?
The Papp A→B was 8.7 ×10⁻⁶ cm/s.

With `CCCCn1c2nc(Cl)ccc2c(=O)n1Cc1ccc(-c2ccccc2-c2nn[nH]n2)cc1` as the compound, how does the pIC50 [1] read?
Its pIC50 is 6.34.

With `CCCCN1C(=O)CC2(CCCC2)C(=O)N1Cc1ccc(-c2ccccc2-c2nn[nH]n2)cc1` as the compound, how does the pKi [1] read?
Its pKi is 7.85.

With `CCCn1nc(OCc2ccc(-c3ccccc3-c3nnn[nH]3)cc2)c2cccnc21` as the compound, how does the pIC50 [1] read?
Its pIC50 is 6.84.

With `CCCCn1c(=O)c2cc(F)cnc2n1Cc1ccc(-c2ccccc2-c2nnn[nH]2)cc1` as the compound, how does the pIC50 [1] read?
The pIC50 was 7.15.

With `CCC1c2ncccc2C(=O)N1Cc1ccc(-c2ccccc2-c2nn[nH]n2)cc1` (centres undefined) as the compound, how does the pIC50 [1] read?
The pIC50 was under 5.00.

With `CCc1nc2c(C)cc(C)nc2n1Cc1ccc(-c2ccccc2-c2nnn[nH]2)cc1` [L-158809] as the compound, how does the pIC50 [1] read?
Its pIC50 is 9.40.

With `CCCCn1nc(OCc2ccc(-c3ccccc3-c3nn[nH]n3)cc2)c2cccnc2c1=O` as the compound, how does the pIC50 [1] read?
Its pIC50 is 6.94.

With `CCCCn1c(=O)c2cc(F)c(Cl)nc2n1Cc1ccc(-c2ccccc2-c2nnn[nH]2)cc1` as the compound, how does the pIC50 [1] read?
The pIC50 was 6.37.

With `CCCc1nc2c(C)cc(C)nc2n1Cc1ccc(-c2ccccc2-c2nn[nH]n2)cc1` as the compound, how does the pIC50 [1] read?
Its pIC50 is 9.10.

With `CCCCn1c2ncccc2c(=O)n1Cc1ccc(-c2ccccc2-c2nnn[nH]2)cc1` as the compound, how does the pIC50 [1] read?
The pIC50 was 7.41.

And the Papp A→B (in vitro)?
The Papp A→B was 3.6 ×10⁻⁶ cm/s.

What about the Kb [2] of the same compound?
Its Kb is 14.8 nM.

With `CCCCN1C(=O)C2(CCCC2)CC(=O)N1Cc1ccc(-c2ccccc2-c2nnn[nH]2)cc1` as the compound, how does the pKi [1] read?
The pKi was 7.10.

With `CCCCn1nc(OCc2ccc(-c3ccccc3-c3nnn[nH]3)cc2)c2cccnc21` as the compound, how does the pIC50 [1] read?
The pIC50 was 6.60.

With `CCCCn1c(=O)c2ccc(C)nc2n1Cc1ccc(-c2ccccc2-c2nnn[nH]2)cc1` as the compound, how does the pIC50 [1] read?
The pIC50 was 7.09.

With `CCCN1C(=O)c2cccnc2C1Cc1ccc(-c2ccccc2-c2nn[nH]n2)cc1` (centres undefined) as the compound, how does the pIC50 [1] read?
The pIC50 was under 5.52.

With `CCCCn1c(=O)c2cccnc2n1Cc1ccc(-c2ccccc2-c2nn[nH]n2)cc1` as the compound, how does the pIC50 [1] read?
Its pIC50 is 7.74.

What about the AUC [3] of the same compound?
Its AUC is 1410 ng·h/mL.

What about the AUC [4] of the same compound?
Its AUC is 3380 ng·h/mL.

What about the half-life [5] of the same compound?
Its half-life is 60 min.

And the half-life [6]?
Its half-life is 54 min.

And the Cmax [7]?
The Cmax was 6320 ng/mL.

What about the Cmax [8] of the same compound?
The Cmax was 4100 ng/mL.

And the Tmax [9]?
The Tmax was 30 min.

What about the bioavailability [10] of the same compound?
The bioavailability was 80%.

What about the Papp A→B (in vitro) of the same compound?
Its Papp A→B is 1.78 ×10⁻⁶ cm/s.

What about the Kb [2] of the same compound?
Its Kb is 10.5 nM.

With `O=C1c2cccnc2CN1Cc1ccc(-c2ccccc2-c2nn[nH]n2)cc1` as the compound, how does the pIC50 [1] read?
The pIC50 was under 5.00.

With `CCCCn1c(=O)c2cc(Cl)cnc2n1Cc1ccc(-c2ccccc2-c2nnn[nH]2)cc1` as the compound, how does the pIC50 [1] read?
Its pIC50 is 7.12.

What about the Papp A→B (in vitro) of the same compound?
The Papp A→B was 10.8 ×10⁻⁶ cm/s.

With `CCCn1c(=O)c2ccc(C)nc2n1Cc1ccc(-c2ccccc2-c2nnn[nH]2)cc1` as the compound, how does the pIC50 [1] read?
The pIC50 was 6.54.

With `CCCCC1c2ncccc2C(=O)N1Cc1ccc(-c2ccccc2-c2nn[nH]n2)cc1` (centres undefined) as the compound, how does the pIC50 [1] read?
The pIC50 was 7.02.

And the Papp A→B (in vitro)?
The Papp A→B was 5.6 ×10⁻⁶ cm/s.

With `CCCCn1c(=O)c2ccccc2n1Cc1ccc(-c2ccccc2-c2nnn[nH]2)cc1` as the compound, how does the pIC50 [1] read?
The pIC50 was 6.22.

With `CCCCn1c(=O)c2ccc(N3CCOCC3)nc2n1Cc1ccc(-c2ccccc2-c2nnn[nH]2)cc1` as the compound, how does the pIC50 [1] read?
The pIC50 was 6.22.

With `CC(C)Cn1c(=O)c2cccnc2n1Cc1ccc(-c2ccccc2-c2nn[nH]n2)cc1` as the compound, how does the pIC50 [1] read?
The pIC50 was 5.64.

With `CCCn1c(=O)c2cccnc2n1Cc1ccc(-c2ccccc2-c2nnn[nH]2)cc1` as the compound, how does the pIC50 [1] read?
Its pIC50 is 6.97.

With `O=c1c2cccnc2n(Cc2ccc(-c3ccccc3-c3nn[nH]n3)cc2)n1Cc1ccccc1` as the compound, how does the pIC50 [1] read?
The pIC50 was under 5.52.

With `CCCCCn1c(=O)c2cccnc2n1Cc1ccc(-c2ccccc2-c2nnn[nH]2)cc1` as the compound, how does the pIC50 [1] read?
The pIC50 was 7.28.

With `CCCCN1C(=O)C2(CCCC2)C(=O)N1Cc1ccc(-c2ccccc2-c2nn[nH]n2)cc1` as the compound, how does the pKi [1] read?
The pKi was 7.60.

With `CCCCn1c(=O)c2ccc(NC)nc2n1Cc1ccc(-c2ccccc2-c2nn[nH]n2)cc1` as the compound, how does the pIC50 [1] read?
Its pIC50 is 6.91.

With `CCCC1c2ncccc2C(=O)N1Cc1ccc(-c2ccccc2-c2nn[nH]n2)cc1` (centres undefined) as the compound, how does the pIC50 [1] read?
The pIC50 was 6.81.

With `CC(C)CCn1c(=O)c2cccnc2n1Cc1ccc(-c2ccccc2-c2nnn[nH]2)cc1` as the compound, how does the pIC50 [1] read?
Its pIC50 is 6.91.
